Experimental data from article PMC10819485 (2024).

Columns and labels:
[1] = test system: HEV1 (MST form) (DNA, aptamer) AGCAGCTTATTGCTGAATTTTT; experiment: microscale thermophoresis; details: NaCl 300 mM, MgCl2 5 mM (aptamer buffer); 20 mM Tris pH 7.6, 0.01% Tween 20; E2 up to 1000 nM; 30 min incubation; abstract 92 nM
[2] = test system: HEV2 (MST form) (DNA, aptamer) AGCAGATGAATCTGAATTTTT; experiment: microscale thermophoresis; details: NaCl 300 mM, MgCl2 5 mM (aptamer buffer); 20 mM Tris pH 7.6, 0.01% Tween 20; highest E2 1000 nM
[3] = test system: HEV1 (colorimetric form) (DNA, aptamer) AGCAGCTTATTGCTGAATTTTT; experiment: AuNP aggregation colorimetry; details: NaCl; A660/A520 ratio rises with E2, 0.2 to 1 μg/mL; room temperature
[4] = test system: M70 (colorimetric form) (DNA, aptamer) GCTTCCAGCTTATTGAATTACACGCAGAGGGTAGCGGCTCTGCGCATTCAATTGCTGCGCGCTGAAGCGCGGAAGC; experiment: AuNP aggregation colorimetry; details: NaCl; A660/A520 ratio rises with E2; room temperature
[5] = test system: HEV1 (electrode form) (DNA, aptamer) AGCAGCTTATTGCTGAATTTTT; experiment: differential pulse voltammetry aptasensor; details: peak current falls with log E2, from 5 pg/mL; immobilised aptamer
[6] = test system: M70 (electrode form) (DNA, aptamer) GCTTCCAGCTTATTGAATTACACGCAGAGGGTAGCGGCTCTGCGCATTCAATTGCTGCGCGCTGAAGCGCGGAAGC; experiment: differential pulse voltammetry aptasensor; details: peak current falls with log E2, 5 pg/mL to 20 ng/mL; immobilised aptamer

- KD [1]: 92.76 ± 66.02 nM
- binding [2]: no
- binding [3]: yes
- binding [4]: yes
- binding [5]: yes
- binding [6]: yes
SMILES: C[C@]12CC[C@@H]3c4ccc(O)cc4CC[C@H]3[C@@H]1CC[C@@H]2O
